One assay addresses T1, PDGFRalpha(V561D) (Homo sapiens, UniProt P16234, V561D).
T1 construct: recombinant human PDGFRalpha, amino acids 550end containing the V561 D mutation; 6His (N)
Description: PDGFRalpha(V561D) assay. Format: biochemical. The following applies: recombinant human PDGFRalpha aa 550-end, 200 μM ATP, 1.4E-06 means 1.4×10^−6, read-out: Inhibition (IC50) of PDGFRα (V561D). A digest of the protocol: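 Radiometric filter-binding assay: substrate phosphorylation by recombinant N-His-tagged human PDGFRα 550-end V561D was quenched with 3% phosphoric acid after 40 min at room temperature, then counted.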

A further assay addresses T2, c-Kit(V654A) (Homo sapiens, UniProt P10721, V654A).
T2 construct: amino acids 544-end containing the V654A mutation; GST (N)
The experiment in a line: c-Kit(V654A) assay. In kind it is biochemical. As to conditions: recombinant human c-Kit aa 544-end, 200 μM ATP, 1.4E-06 means 1.4×10^−6, read-out: Inhibition (IC50) of c-KIT (V654A). A digest of the protocol:
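Radiometric filter-binding read-out: substrate 33P incorporation counted by scintillation after P30 filtermat washes in 75 mM phosphoric acid and methanol. Enzyme: N-GST recombinant human c-Kit aa 544-end carrying V654A.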

T1 sequence (P16234 550-1089 V561D): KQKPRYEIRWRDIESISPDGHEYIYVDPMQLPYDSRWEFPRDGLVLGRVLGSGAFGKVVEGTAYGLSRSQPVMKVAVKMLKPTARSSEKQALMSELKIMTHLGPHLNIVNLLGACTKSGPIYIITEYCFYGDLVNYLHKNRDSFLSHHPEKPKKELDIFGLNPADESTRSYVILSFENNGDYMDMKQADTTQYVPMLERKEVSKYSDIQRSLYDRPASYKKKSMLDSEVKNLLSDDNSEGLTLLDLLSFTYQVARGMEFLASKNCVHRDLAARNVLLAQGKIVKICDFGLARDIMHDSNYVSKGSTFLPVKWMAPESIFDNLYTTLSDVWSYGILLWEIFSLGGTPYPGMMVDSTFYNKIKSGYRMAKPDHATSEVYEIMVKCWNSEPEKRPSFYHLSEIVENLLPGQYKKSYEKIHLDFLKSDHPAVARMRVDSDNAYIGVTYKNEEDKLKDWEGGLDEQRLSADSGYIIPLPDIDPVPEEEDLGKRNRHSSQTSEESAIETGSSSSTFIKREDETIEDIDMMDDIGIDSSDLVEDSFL
T2 sequence (P10721 544-976 V654A): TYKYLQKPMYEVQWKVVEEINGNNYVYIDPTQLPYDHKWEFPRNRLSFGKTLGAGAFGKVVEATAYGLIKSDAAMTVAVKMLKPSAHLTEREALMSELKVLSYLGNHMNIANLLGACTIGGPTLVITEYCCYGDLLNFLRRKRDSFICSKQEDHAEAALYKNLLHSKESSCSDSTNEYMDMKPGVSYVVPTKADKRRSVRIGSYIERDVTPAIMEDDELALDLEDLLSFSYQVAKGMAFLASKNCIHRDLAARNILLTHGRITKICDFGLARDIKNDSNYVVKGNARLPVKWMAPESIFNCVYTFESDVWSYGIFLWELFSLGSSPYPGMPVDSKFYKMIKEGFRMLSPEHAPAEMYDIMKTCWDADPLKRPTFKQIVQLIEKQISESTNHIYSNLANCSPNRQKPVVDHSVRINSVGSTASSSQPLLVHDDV

As to `Cc1ccc2[nH]c(=O)c(-c3cn(-c4ccc(C(=O)N5CCN(C)CC5)cc4)nn3)cc2c1` [A168, 6-methyl-3-{1-[4-(4-methyl-piperazine-1-carbonyl)-phenyl]-1H-[1,2,3]triazol-4-yl}-1H-quinolin-2-one], the concentration for half-maximal inhibition (IC50) on PDGFRalpha(V561D) came out at 100 nM; on c-Kit(V654A) it was 37 nM.

As for `CNc1ccc(-n2cc(-c3cc4cc(F)ccc4[nH]c3=O)nn2)cc1` [A342, 6-fluoro-3-[1-(4-methylamino-phenyl)-1H-[1,2,3]triazol-4-yl]-1H-quinolin-2-one], the IC50 is 36 nM at PDGFRalpha(V561D) and 25 nM at c-Kit(V654A).

Take `CN(C)C[C@@H]1CCCN1C(=O)c1ccc(-n2cc(-c3cc4cc(F)c(F)cc4[nH]c3=O)nn2)cc1` [A323, 3-{1-[4-((S)-2-dimethylaminomethyl-pyrrolidine-1-carbonyl)-phenyl]-1H-[1,2,3]triazol-4-yl}-6,7-difluoro-1H-quinolin-2-one]: the IC50 on PDGFRalpha(V561D) and at c-Kit(V654A) was 220 nM each time.

As for `O=c1[nH]c2ccccc2cc1-c1cnn(-c2ccccc2)c1` [A75, 3-(1-phenyl-1H-pyrazol-4-yl)-1H-quinolin-2-one], the figures for the IC50 at PDGFRalpha(V561D) and on c-Kit(V654A) were 18 nM and 48 nM, respectively.

Regarding `CN1CC[C@H](Oc2ccc(-n3cc(-c4cc5cc(F)ccc5[nH]c4=O)nn3)cc2)C1` [A370, 6-fluoro-3-{1-[4-((S)-1-methyl-pyrrolidin-3-yloxy)-phenyl]-1H-[1,2,3]triazol-4-yl}-1H-quinolin-2-one], the IC50 on PDGFRalpha(V561D) turned out to be 58 nM; on c-Kit(V654A) it was 31 nM.

Consider `CN(C)C[C@H]1CCN(C(=O)c2ccc(-n3cc(-c4cc5cc(F)ccc5[nH]c4=O)nn3)cc2)C1` [A334, 3-{1-[4-((R)-3-dimethylaminomethyl-pyrrolidine-1-carbonyl)-phenyl]-1H-[1,2,3]triazol-4-yl}-6-fluoro-1H-quinolin-2-one], for which the figures for the concentration for half-maximal inhibition (IC50) on PDGFRalpha(V561D) and at c-Kit(V654A) were 41 nM and 15 nM, respectively.

For the compound `O=c1[nH]c2ccccc2cc1-c1cn(-c2ccc(OCCN3CCCC3)cc2)nn1` [A14, 3-{1-[4-(2-pyrrolidin-1-yl-ethoxy)-phenyl]-1H-[1,2,3]triazol-4-yl}-1H-quinolin-2-one], the half-inhibitory concentration (IC50) was found to be 20 nM on PDGFRalpha(V561D) and 23 nM at c-Kit(V654A).

With `O=C(c1ccc(-n2cc(-c3cc4cc(Cl)ccc4[nH]c3=O)nn2)cc1)N1CCC(F)(F)C1` [A268, 6-chloro-3-{1-[4-(3,3-difluoro-pyrrolidine-1-carbonyl)-phenyl]-1H-[1,2,3]triazol-4-yl}-1H-quinolin-2-one], the values for the IC50 on PDGFRalpha(V561D) and at c-Kit(V654A) were 0.67 nM and 16 nM, respectively.

Turning to `O=C(c1ccc(-n2cc(-c3cc4cc(F)ccc4[nH]c3=O)nn2)cc1)N1CCC(F)(F)C1` [A267, 3-{1-[4-(3,3-difluoro-pyrrolidine-1-carbonyl)-phenyl]-1H-[1,2,3]triazol-4-yl}-6-fluoro-1H-quinolin-2-one], the values for the IC50 at PDGFRalpha(V561D) and at c-Kit(V654A) were 1.4 nM and 17 nM, respectively.

In the case of `O=C(c1ccc(-n2cc(-c3cc4cc(F)ccc4[nH]c3=O)nn2)cc1)N1CCC[C@H]1CO` [A197, 6-fluoro-3-{1-[4-((S)-2-hydroxymethyl-pyrrolidine-1-carbonyl)-phenyl]-1H-[1,2,3]triazol-4-yl}-1H-quinolin-2-one], the values for the half-maximal inhibitory concentration (IC50) on PDGFRalpha(V561D) and on c-Kit(V654A) were 32 nM and 28 nM, respectively.

Turning to `O=C(c1ccc(-n2cc(-c3cc4cc(F)ccc4[nH]c3=O)nn2)cc1)N1C[C@H](O)C[C@H]1CO` [A227, 6-fluoro-3-{1-[4-((2S,4R)-4-hydroxy-2-hydroxymethyl-pyrrolidine-1-carbonyl)-phenyl]-1H-[1,2,3]triazol-4-yl}-1H-quinolin-2-one], the half-inhibitory concentration (IC50) was 140 nM on PDGFRalpha(V561D) and 92 nM at c-Kit(V654A).

For `O=C(COc1ccc(-n2cc(-c3cc4cc(F)c(F)cc4[nH]c3=O)nn2)cc1)N1CCNCC1` [A140, 6,7-difluoro-3-{1-[4-(2-oxo-2-piperazin-1-yl-ethoxy)-phenyl]-1H-[1,2,3]triazol-4-yl}-1H-quinolin-2-one], the concentration for half-maximal inhibition (IC50) at PDGFRalpha(V561D) came to 28 nM; on c-Kit(V654A), 14 nM.

As for `CN1CCN(C(=O)Cn2ccc3cc(-n4cc(-c5cc6cc(F)ccc6[nH]c5=O)nn4)ccc32)CC1` [A178, 6-fluoro-3-(1-{1-[2-(4-methyl-piperazin-1-yl)-2-oxo-ethyl]-1H-indol-5-yl}-1H-[1,2,3]triazol-4-yl)-1H-quinolin-2-one], the IC50 at PDGFRalpha(V561D) was determined as 1.3 nM; on c-Kit(V654A) it was 3.9 nM.

For `O=C(c1ccc(-n2cc(-c3cc4cc(F)ccc4[nH]c3=O)nn2)cc1)N1CCC[C@H]1CN1CCCC1` [A279, 6-fluoro-3-{1-[4-((S)-2-pyrrolidin-1-ylmethyl-pyrrolidine-1-carbonyl)-phenyl]-1H-[1,2,3]triazol-4-yl}-1H-quinolin-2-one], the IC50 on PDGFRalpha(V561D) turned out to be 0.72 nM; at c-Kit(V654A), 14 nM.

`O=C(c1ccc(-n2cc(-c3cc4ccncc4[nH]c3=O)nn2)cc1)N1CCOCC1` [A29, 3-{1-[4-(morpholine-4-carbonyl)-phenyl]-1H-[1,2,3]triazol-4-yl}-1H-[1,7]naphthyridin-2-one]: the half-maximal inhibitory concentration (IC50) came to 23 nM at PDGFRalpha(V561D) and 150 nM at c-Kit(V654A).

As to `O=c1[nH]c2cc(F)c(F)cc2cc1-c1cn(-c2ccc(OCCC3CCNCC3)cc2)nn1` [A134, 6,7-difluoro-3-{1-[4-(2-piperidin-4-yl-ethoxy)-phenyl]-1H-[1,2,3]triazol-4-yl}-1H-quinolin-2-one], the IC50 at PDGFRalpha(V561D) came to 16 nM; on c-Kit(V654A), 17 nM.

Turning to `O=C(c1ccc(-n2cc(-c3cc4cc(Cl)ccc4[nH]c3=O)nn2)cc1)N1C[C@H](O)CO1` [A277, 6-chloro-3-{1-[4-((S)-4-hydroxy-isoxazolidine-2-carbonyl)-phenyl]-1H-[1,2,3]triazol-4-yl}-1H-quinolin-2-one], the IC50 at PDGFRalpha(V561D) was 2.6 nM; at c-Kit(V654A), 30 nM.

Turning to `COC[C@@H]1CC[C@@H](COC)N1C(=O)c1ccc(-n2cc(-c3cc4cc(F)ccc4[nH]c3=O)nn2)cc1` [A217, 3-{1-[4-((2S,5S)-2,5-bis-methoxymethyl-pyrrolidine-1-carbonyl)-phenyl]-1H-[1,2,3]triazol-4-yl}-6-fluoro-1H-quinolin-2-one], the values for the half-maximal inhibitory concentration (IC50) at PDGFRalpha(V561D) and on c-Kit(V654A) were 46 nM and 350 nM, respectively.

Regarding `O=c1[nH]c2ccccc2cc1-c1cn(-c2ccccc2)nn1` [A27, 3-(1-phenyl-1H-[1,2,3]triazol-4-yl)-1H-quinolin-2-one], the IC50 came to 32 nM on PDGFRalpha(V561D) and 50 nM at c-Kit(V654A).

As to `O=C(c1ccc(-n2cc(-c3cc4cc(F)ccc4[nH]c3=O)nn2)cc1)N1CCC[C@@H]1CN1CCCC1` [A278, 6-fluoro-3-{1-[4-((R)-2-pyrrolidin-1-ylmethyl-pyrrolidine-1-carbonyl)-phenyl]-1H-[1,2,3]triazol-4-yl}-1H-quinolin-2-one], the figures for the IC50 at PDGFRalpha(V561D) and on c-Kit(V654A) were 1.5 nM and 17 nM, respectively.

For `CN1CCN(C(=O)c2ccc(-n3cc(-c4cc5cnccc5[nH]c4=O)nn3)cc2)CC1` [A62, 3-{1-[4-(4-methyl-piperazine-1-carbonyl)-phenyl]-1H-[1,2,3]triazol-4-yl}-1H-[1,6]naphthyridin-2-one], the concentration for half-maximal inhibition (IC50) was 46 nM on PDGFRalpha(V561D) and 200 nM on c-Kit(V654A).

As for `CN(C)C[C@H]1CCCN1C(=O)c1ccc(-n2cc(-c3cc4cc(F)ccc4[nH]c3=O)cn2)cc1` [A325, 3-{1-[4-((R)-2-dimethylaminomethyl-pyrrolidine-1-carbonyl)-phenyl]-1H-pyrazol-4-yl}-6-fluoro-1H-quinolin-2-one], the values for the 50% inhibitory concentration (IC50) on PDGFRalpha(V561D) and at c-Kit(V654A) were 3.8 nM and 17 nM, respectively.

As for `CNC(=O)c1ccc(-n2cc(-c3cc4ccccc4[nH]c3=O)nn2)cc1F` [A39, 2-fluoro-N-methyl-4-[4-(2-oxo-1,2-dihydro-quinolin-3-yl)-[1,2,3]triazol-1-yl]-benzamide], the results for the half-inhibitory concentration (IC50) on PDGFRalpha(V561D) and on c-Kit(V654A) were 23 nM and 74 nM, respectively.

On to `O=C(c1ccc(-n2cc(-c3cc4cc(Cl)ccc4[nH]c3=O)nn2)cc1)N1CCC(N2CCC(O)CC2)C1` (stereo not shown) [A249, 6-chloro-3-(1-{4-[3-(4-hydroxy-piperidin-1-yl)-pyrrolidine-1-carbonyl]-phenyl}-1H-[1,2,3]triazol-4-yl)-1H-quinolin-2-one], for which the IC50 stood at 260 nM at PDGFRalpha(V561D) and 35 nM on c-Kit(V654A).

Consider `CCN(CC)[C@H]1CCCN(C(=O)c2ccc(-n3cc(-c4cc5cc(F)ccc5[nH]c4=O)nn3)cc2)C1` [A337, 3-{1-[4-((S)-3-diethylamino-piperidine-1-carbonyl)-phenyl]-1H-[1,2,3]triazol-4-yl}-6-fluoro-1H-quinolin-2-one], for which the half-inhibitory concentration (IC50) at PDGFRalpha(V561D) is 230 nM; at c-Kit(V654A), 75 nM.

For the compound `O=C(c1ccc(-n2cc(-c3cc4cc(F)ccc4[nH]c3=O)nn2)cc1)N1CCC2(CCOC2)C1` (stereo not shown) [A204, 6-fluoro-3-{1-[4-(2-oxa-7-aza-spiro[4.4]nonane-7-carbonyl)-phenyl]-1H-[1,2,3]triazol-4-yl}-1H-quinolin-2-one], the half-inhibitory concentration (IC50) was 110 nM at PDGFRalpha(V561D) and 55 nM at c-Kit(V654A).

Turning to `CN(C)CCc1ccc(-n2cc(-c3cc4cc(F)c(F)cc4[nH]c3=O)nn2)cc1` [A115, 3-{1-[4-(2-dimethylamino-ethyl)-phenyl]-1H-[1,2,3]triazol-4-yl}-6,7-difluoro-1H-quinolin-2-one], the IC50 on PDGFRalpha(V561D) amounted to 1400 nM; at c-Kit(V654A), 180 nM.

In the case of `CO[C@@H]1CCCN(C(=O)c2ccc(-n3cc(-c4cc5cc(F)ccc5[nH]c4=O)nn3)cc2)C1` [A194, 6-fluoro-3-{1-[4-((R)-3-methoxy-piperidine-1-carbonyl)-phenyl]-1H-[1,2,3]triazol-4-yl}-1H-quinolin-2-one], the results for the 50% inhibitory concentration (IC50) on PDGFRalpha(V561D) and on c-Kit(V654A) were 91 nM and 49 nM, respectively.

For `O=c1[nH]c2ccccc2cc1-c1cn(-c2ccc(N3CCNCC3)cc2)nn1` [A52, 3-[1-(4-piperazin-1-yl-phenyl)-1H-[1,2,3]triazol-4-yl]-1H-quinolin-2-one], the IC50 at PDGFRalpha(V561D) was determined as 27 nM; at c-Kit(V654A) it was 22 nM.

(Values after US11939314B2, “Quinolin-2-one derivatives” (MERCK PATENT GMBH, priority 2016, dated 2024).)
